Ends that are not written are not given here. * marks the point of attachment. Biotin = O=C1N[C@H]2[C@H](CS[C@H]2CCCCC(=O)*)N1
Columns and labels:
[1] = tested on: Mouse T cell lines stimulated with anti-mouse CD3; assay: T cell stimulation assay, anti-mouse CD3, IFNγ ELISA (FIG. 1B); type: cell-based; settings: 10 μM Tat-peptide; compared to Tat-peptide alone
Protocol: Cell Cultures Cells were maintained and tested in RPMI 1640 media supplemented with 10% fetal calf serum (HyClone), 2 mM glutamine, 10 mM Hepes, 100 U/ml penicillin, 100 μg/ml streptomycin, 0.1 mM non-essential amino acids, 1 mM sodium pyruvate, and 50 μM beta mercaptoethanol.
Supernatants were assayed for cytokine production following activation of T cell lines. Mouse T cell lines were stimulated using two different methods, either with antigen and antigen presenting cells or anti-mouse CD3.
Antibody against mouse CD3 (Pharmigen #145-2C11) was coated overnight at 4° C. using 96-well flat bottom Elisa plates at a final concentration of 0.5 μg/ml, diluted in PBS. Just prior to use, plates were washed three times with 200 μl/well PBS to remove excess anti-CD3. […]
IFNγ was measured from cell supernatants, described above, at ambient temperature using the Endogen, Inc. ELISA protocol 3. […] The presence of IFNγ was detected with a biotin-labeled anti-mouse IFNγ monoclonal antibody (MM700B, Endogen, Inc.,). […] The absorbance at 450 nm was measured using a microtiter plate reader (Thermo Max, Molecular Devices) and the concentration of unknown IFNγ from cell supernatants was calculated from a standard curve generated by Softmax Pro software (Molecular Devices).

[2] = tested on: PDZ protein (GST-PDZ fusion); assay: G' assay (10 uM PL peptide), results of TABLE 7 and TABLE 12; type: binding
Procedure, shortened: (§1)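 Biotin-PL peptide (N-term label), 10 uM vs GST-PDZ; protein 5 ug/ml by default. A450 nm binned: 1 = 0-1, 2 = 1-2, 3 = 2-3, 4 = 3-4, 5 = >4 on >2 repeats, 0 = no binding.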

[3] = molecular target: T1, PDZ protein (GST-PDZ fusion) (Homo sapiens, UniProt O14907); assay: as above; type: binding; settings: PDZ TIP1, PDZ Domain 1
T1 construct: made in house; host or cells: E. coli (DH5alpha, BL21 or JM109)
T1 sequence (O14907 1-124): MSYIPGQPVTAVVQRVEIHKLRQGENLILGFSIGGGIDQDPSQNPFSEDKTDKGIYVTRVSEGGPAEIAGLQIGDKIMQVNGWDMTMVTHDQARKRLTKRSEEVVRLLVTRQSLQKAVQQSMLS
Procedure, shortened: as §1

[4] = tested on: PDZ-domain polypeptide (GST/PDZ fusion protein); assay: G assay (G0): biotinylated PL peptide 20 uM binding to immobilized GST/PDZ fusion protein; settings: G Assay of Example 3
Protocol: “G Assay”—Detection of PDZ-Ligand Binding Using Immobilized PDZ-Domain Fusion Polypeptide
In other assays, a GST/PDZ fusion protein is immobilized on a surface (“G” assay). The binding of labeled PL peptide (e.g., as listed in TABLE 8) to this surface is then measured. Typically, the assay is carried out as follows:
(1) A PDZ-domain polypeptide is bound to a surface, e.g. a protein binding surface. In a preferred embodiment, a GST/PDZ fusion protein containing one or more PDZ domains is bound to a polystyrene 96-well plate. […] In some instances, the GST/PDZ fusion protein is bound via an anti-GST antibody that is coated onto the 96-well plate. Adequate binding to the plate can be achieved when: • a. […]
(3) The binding of the biotinylated peptide to the GST/PDZ fusion protein surface can be detected using a variety of methods and detectors known to one of skill in the art. […] The reaction of the HRP and its substrate is terminated by addition of 100 uL per well of 1M sulfuric acid, and the absorbance of each well of the plate is read at 450 nm.
(4) Specific binding of a PL peptide and a PDZ domain polypeptide is determined by comparing the signal from the well(s) in which the PL peptide and PDZ domain polypeptide are combined, with the background signal(s). […]

[5] = molecular target: T2, PDZ protein (GST-PDZ fusion) (Homo sapiens, UniProt Q02410); assay: G' assay (10 uM PL peptide), results of TABLE 7 and TABLE 12; type: binding; settings: PDZ Mint 1, PDZ Domain 2
T2 construct: made in house; host or cells: E. coli (DH5alpha, BL21 or JM109)
T2 sequence (Q02410 1-837): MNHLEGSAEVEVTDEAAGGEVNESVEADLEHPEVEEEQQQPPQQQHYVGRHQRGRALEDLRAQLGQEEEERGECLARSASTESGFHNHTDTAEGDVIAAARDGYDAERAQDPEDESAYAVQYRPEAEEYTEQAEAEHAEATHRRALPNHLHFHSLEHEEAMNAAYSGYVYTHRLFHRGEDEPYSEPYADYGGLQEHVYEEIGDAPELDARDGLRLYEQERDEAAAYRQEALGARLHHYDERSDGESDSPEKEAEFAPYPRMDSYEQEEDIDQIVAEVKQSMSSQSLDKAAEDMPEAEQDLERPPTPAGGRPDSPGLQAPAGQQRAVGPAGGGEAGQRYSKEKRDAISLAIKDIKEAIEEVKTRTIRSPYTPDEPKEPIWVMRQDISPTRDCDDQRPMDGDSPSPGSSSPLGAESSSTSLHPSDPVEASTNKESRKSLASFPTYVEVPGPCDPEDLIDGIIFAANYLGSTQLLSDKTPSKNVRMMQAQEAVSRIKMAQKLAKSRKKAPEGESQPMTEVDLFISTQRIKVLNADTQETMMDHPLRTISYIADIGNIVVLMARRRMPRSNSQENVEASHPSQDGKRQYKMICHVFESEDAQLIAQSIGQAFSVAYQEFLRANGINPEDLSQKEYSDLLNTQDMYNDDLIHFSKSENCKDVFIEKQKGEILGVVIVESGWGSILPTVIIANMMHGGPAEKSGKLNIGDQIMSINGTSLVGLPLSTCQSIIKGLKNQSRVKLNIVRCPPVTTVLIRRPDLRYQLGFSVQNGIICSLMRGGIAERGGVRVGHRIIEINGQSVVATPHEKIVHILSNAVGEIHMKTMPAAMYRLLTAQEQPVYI
Procedure, shortened: as §1

[6] = molecular target: T3, PDZ protein (GST-PDZ fusion) (Homo sapiens, UniProt Q9Y2H9); assay: as above; type: binding; settings: PDZ KIAA0973, PDZ Domain 1
T3 construct: made in house; host or cells: E. coli (DH5alpha, BL21 or JM109)
T3 sequence (Q9Y2H9 whole entry, the tested form may be a part): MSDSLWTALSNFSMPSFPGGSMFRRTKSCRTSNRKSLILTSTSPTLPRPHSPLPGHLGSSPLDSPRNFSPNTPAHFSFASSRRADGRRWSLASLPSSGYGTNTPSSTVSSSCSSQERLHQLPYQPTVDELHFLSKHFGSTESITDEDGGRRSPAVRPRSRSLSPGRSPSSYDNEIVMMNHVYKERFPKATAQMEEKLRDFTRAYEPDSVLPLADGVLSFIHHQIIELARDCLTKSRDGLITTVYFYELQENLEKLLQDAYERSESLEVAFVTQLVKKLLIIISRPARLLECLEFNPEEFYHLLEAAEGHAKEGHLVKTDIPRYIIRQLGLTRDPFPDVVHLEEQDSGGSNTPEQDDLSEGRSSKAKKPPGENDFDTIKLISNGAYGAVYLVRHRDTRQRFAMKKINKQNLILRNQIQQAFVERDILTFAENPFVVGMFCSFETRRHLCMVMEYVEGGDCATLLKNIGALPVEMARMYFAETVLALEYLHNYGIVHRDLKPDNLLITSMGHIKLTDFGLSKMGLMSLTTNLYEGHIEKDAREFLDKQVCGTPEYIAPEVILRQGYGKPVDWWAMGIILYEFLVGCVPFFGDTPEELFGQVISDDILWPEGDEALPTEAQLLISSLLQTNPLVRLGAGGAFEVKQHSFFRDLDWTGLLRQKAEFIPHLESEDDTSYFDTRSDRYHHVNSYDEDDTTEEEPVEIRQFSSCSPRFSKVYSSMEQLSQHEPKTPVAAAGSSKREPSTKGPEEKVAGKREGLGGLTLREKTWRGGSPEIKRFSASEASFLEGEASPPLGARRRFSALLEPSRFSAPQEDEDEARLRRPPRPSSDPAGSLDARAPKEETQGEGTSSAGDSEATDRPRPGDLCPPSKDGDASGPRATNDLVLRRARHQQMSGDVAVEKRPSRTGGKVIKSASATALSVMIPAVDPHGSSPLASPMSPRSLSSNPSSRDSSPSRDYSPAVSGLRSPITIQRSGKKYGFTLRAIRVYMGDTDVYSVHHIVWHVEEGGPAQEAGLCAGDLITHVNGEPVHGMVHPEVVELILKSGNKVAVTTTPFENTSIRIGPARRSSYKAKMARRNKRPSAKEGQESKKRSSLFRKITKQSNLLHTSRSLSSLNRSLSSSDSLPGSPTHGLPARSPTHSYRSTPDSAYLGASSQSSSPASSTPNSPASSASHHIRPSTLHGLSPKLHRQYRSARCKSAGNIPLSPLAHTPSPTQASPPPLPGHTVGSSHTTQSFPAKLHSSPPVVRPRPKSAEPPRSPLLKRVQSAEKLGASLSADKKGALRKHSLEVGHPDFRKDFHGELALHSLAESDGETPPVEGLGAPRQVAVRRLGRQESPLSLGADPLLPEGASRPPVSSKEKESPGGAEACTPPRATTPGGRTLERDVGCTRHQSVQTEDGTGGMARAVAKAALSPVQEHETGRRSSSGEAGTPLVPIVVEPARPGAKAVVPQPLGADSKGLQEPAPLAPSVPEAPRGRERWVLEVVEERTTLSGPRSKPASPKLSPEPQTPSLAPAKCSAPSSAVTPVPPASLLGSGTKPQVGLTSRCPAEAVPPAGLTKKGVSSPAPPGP
Procedure, shortened: as §1

Mint 1 (PDZ Domain 1, 2) = molecular target: T4, Mint 1 (PDZ Domain 1, 2) (Homo sapiens, UniProt Q02410); assay: G' assay, TABLE 12; type: binding; settings: A450 nm class of biotinylated PL peptide bound; 0 in conc columns = peptide 10 uM, protein 5 ug/ml
T4 construct: When more than one PDZ domain was cloned, the DNA portion cloned represents the PDZ domains and the cDNA portion located between individual domains; made in house; host or cells: E. coli (DH5alpha, BL21 or JM109)
T4 sequence (Q02410 652-828 limits assumed): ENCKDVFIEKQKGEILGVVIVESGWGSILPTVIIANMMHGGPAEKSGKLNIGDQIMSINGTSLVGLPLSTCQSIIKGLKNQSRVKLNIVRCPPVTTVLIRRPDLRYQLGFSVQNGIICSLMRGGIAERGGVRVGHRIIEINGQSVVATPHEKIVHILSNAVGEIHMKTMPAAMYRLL
Protocol: (§2) The third column labeled “Peptide Optimal Concentration” in the tables is a number reflective of the binding interaction between the PL protein and PDZ protein. […] The column labeled “Protein Optimal Concentration” refers to the protein concentration used to assay PL interaction (in ug/ml); a ‘0’ is indicative of 5 ug/ml protein concentration; any other value represents the concentration (in ug/ml) used to determine the dissociation constant for a given interaction.
(§3) Finally, the seventh column labeled “Classification” is another measure of the level of binding. In particular, it provides an absorbance value at 450 nm which indicates the amount of PL peptide bound to the PDZ protein. The following numerical values have the following meanings: ‘1’—A450 nm 0-1; ‘2’—A450 nm 1-2; ‘3’—A450 nm 2-3; ‘4’—A450 nm 3-4; ‘5’—A450 nm of 4 more than 2× repeated; ‘0’—A450 nm 0, i.e., not found to interact. Thus, higher numbers indicate stronger interactions.
(§4) For convenience, the assay conditions described in this section are referred to as the “G′ assay” and the “G″ assay,” with the specific conditions described in the preceding section on G assays being referred to as the “G^0 assay.” The “G′ assay” is identical to the “G^0 assay” except at step (2) the peptide concentration is 10 uM instead of 20 uM. […] Correspondingly, it slightly increases the certainty that detected interactions are of sufficient affinity and half-life to be of biological importance and useful therapeutic targets.

KIAA807 = molecular target: T5, KIAA807 (Homo sapiens, UniProt Q6P0Q8); assay: G' assay, TABLE 12; type: binding; settings: A450 nm class of biotinylated PL peptide bound; 0 in conc columns = peptide 10 uM, protein 5 ug/ml
T5 construct: made in house; host or cells: E. coli (DH5alpha, BL21 or JM109)
T5 sequence (Q6P0Q8 1104-1192 limits assumed): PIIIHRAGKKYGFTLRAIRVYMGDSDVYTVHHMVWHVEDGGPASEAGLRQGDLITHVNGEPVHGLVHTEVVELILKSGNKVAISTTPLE
Protocol: as §2, §3, §4

[7] = molecular target: T6, KIAA0807(S) (PDZ Domain 1) (Homo sapiens, UniProt Q6P0Q8); assay: G' assay and Kd titration, TABLE 12; type: binding; settings: A450 nm class of biotinylated PL peptide bound; 0 in conc columns = peptide 10 uM, protein 5 ug/ml
T6 construct: made in house; host or cells: E. coli (DH5alpha, BL21 or JM109)
T6 sequence (Q6P0Q8 with tags, fused parts or gaps): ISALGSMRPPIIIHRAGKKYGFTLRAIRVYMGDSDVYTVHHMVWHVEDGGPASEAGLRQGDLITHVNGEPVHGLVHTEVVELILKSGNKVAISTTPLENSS
Protocol: as §2, §3
For convenience, the assay conditions described in this section are referred to as the “G′ assay” and the “G″ assay,” with the specific conditions described in the preceding section on G assays being referred to as the “G^0 assay.” The “G′ assay” is identical to the “G^0 assay” except at step (2) the peptide concentration is 10 uM instead of 20 uM.

GYGRKKRRQRRRGSISSSAEV [Tat-CLASP1 fusion peptide]
T cell activation mediated by monoclonal anti-CD3 (IFNγ production) [1]: did not inhibit T cell activation

GGGRGSGLAGGSRGGGQSRQ [HPV E6 77]
Classification ([2]; PDZ BAI-1, PDZ Domain 2): 0 (A450 nm 0, i.e., not found to interact)
Classification [3]: 0 (A450 nm 0, i.e., not found to interact)
binding of E6 C-terminal peptides to a variety of PDZ domains [4]: did not bind any of the PDZ domains tested

KKGTYLTDETHREVKFTSL (Biotin-KKGTYLTDETHREVKFTSL) [CD46]
Classification ([2]; PDZ BAI-1, PDZ Domain 5): 1 (A450 nm 0-1)
PDZ proteins bound by the PL (TABLE 7) ([2]; as cited in the text from TABLE 7): KIAA0973, Mint 1, KIAA807, BAI-1, KIA0807(S)
Classification [5]: 1 (A450 nm 0-1)
Classification [6]: 2 (A450 nm 1-2)
Classification (Mint 1 (PDZ Domain 1, 2)): 1 (A450 nm 0-1)
Classification (KIAA807): 4 (A450 nm 3-4)
Classification [7]: 5 (A450 nm of 4 more than 2× repeated)

GYGRKKRRQRRRGMTSSSSVV
T cell activation mediated by monoclonal anti-CD3 (IFNγ production) [1]: inhibited T cell activation

HAMNAAPRAMENAPALRTSH (Biotin-HAMNAAPRAMENAPALRTSH) [HPV E6 57]
binding of E6 C-terminal peptides to a variety of PDZ domains [4]: did not bind any of the PDZ domains tested

Source: US20050282743A1, “Molecular interactions in cells” (Arbor Vita Corporation, priority 2001, published 2005)
